# According to patent US20230116196A1, “METHOD OF TREATING CNS DISORDERS WITH NEU[…] GABAERGIC COMPOUNDS” (priority 2017, published 2023):
# Like-named read-outs stand apart in the source and are kept apart here.
# What was measured:
# α1β2γ2 GABAA receptors = molecular target: T1, α1β2γ2 GABAA receptors (Homo sapiens, UniProt P14867+P18507+P47870); test: Whole-cell patch clamp: potentiation of GABA EC20 currents at recombinant α1β2γ2 GABAA receptors; assay type: cell-based
# T1 construct: expressed in transfected cells; host or cells: LTK cells, stably transfected
# T1 sequence (P14867 28-456): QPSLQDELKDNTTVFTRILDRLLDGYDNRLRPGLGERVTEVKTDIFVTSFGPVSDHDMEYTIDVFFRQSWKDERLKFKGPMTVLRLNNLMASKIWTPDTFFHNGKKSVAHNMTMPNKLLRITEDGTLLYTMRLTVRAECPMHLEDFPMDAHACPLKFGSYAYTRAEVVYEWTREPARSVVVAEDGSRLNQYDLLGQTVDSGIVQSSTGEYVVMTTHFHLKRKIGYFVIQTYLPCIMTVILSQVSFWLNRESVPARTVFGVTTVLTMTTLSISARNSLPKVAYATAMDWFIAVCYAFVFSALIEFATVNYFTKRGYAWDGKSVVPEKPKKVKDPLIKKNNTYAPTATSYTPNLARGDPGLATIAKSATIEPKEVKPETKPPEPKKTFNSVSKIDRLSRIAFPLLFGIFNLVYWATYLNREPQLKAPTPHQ
# T1 sequence (P47870 25-512 limits assumed): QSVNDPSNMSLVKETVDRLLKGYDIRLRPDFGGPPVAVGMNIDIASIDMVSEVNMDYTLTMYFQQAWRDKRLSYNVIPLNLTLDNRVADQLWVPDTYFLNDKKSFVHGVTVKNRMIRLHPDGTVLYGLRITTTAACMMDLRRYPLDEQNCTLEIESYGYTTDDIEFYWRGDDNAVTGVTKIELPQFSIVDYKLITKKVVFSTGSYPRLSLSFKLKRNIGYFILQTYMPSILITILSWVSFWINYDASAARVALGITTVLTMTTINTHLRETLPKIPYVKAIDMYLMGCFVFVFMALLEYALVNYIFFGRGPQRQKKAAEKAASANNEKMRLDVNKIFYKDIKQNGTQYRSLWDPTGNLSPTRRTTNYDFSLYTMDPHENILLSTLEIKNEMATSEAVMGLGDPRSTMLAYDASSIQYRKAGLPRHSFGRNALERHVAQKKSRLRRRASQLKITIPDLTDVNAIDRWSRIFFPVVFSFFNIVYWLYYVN
# T1 sequence (P18507 40-475): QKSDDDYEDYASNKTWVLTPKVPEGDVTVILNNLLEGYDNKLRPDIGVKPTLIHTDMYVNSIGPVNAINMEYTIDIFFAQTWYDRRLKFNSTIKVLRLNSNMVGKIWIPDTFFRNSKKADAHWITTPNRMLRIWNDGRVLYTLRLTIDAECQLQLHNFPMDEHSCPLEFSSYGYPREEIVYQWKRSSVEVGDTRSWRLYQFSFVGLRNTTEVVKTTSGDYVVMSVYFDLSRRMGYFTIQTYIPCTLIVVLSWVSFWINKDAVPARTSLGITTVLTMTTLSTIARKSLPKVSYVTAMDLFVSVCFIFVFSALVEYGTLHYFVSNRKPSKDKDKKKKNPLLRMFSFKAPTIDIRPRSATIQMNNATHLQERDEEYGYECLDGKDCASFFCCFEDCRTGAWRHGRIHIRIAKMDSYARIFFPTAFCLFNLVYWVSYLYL
# Description: Cellular electrophysiology was used to measure the pharmacological properties of ALLO, ganaxolone and SGE-516 in heterologous cell systems. Compounds were tested for their ability to affect GABA mediated currents at a submaximal agonist dose (GABA EC20=2 μM).
# LTK cells were stably transfected with the α1β2γ2 subunits of the GABA receptor and CHO cells are transiently transfected with the α4β3γ subunits via the Lipofecatamine method. Cells were passaged at a confluence of about 50-80% and then seeded onto 35 mm sterile culture dishes containing 2 ml culture complete medium without antibiotics or antimycotics. Cells were cultivated at a density that enabled the recording of single cells without visible connections to other cells.
# Whole-cell currents were measured with HEKA EPC-10 amplifiers using PatchMaster software. Bath solution for all experiments contained (in mM): NaCl 137, KCl 4, CaCl2 1.8, MgCl2 1, HEPES 10, D-Glucose 10, pH 7.4 with NaOH. Intracellular (pipette) solution contained (in mM): KCl 130, MgCl2 1, Mg-ATP 5, HEPES 10, EGTA 5, pH 7.2 with KOH. During experiments, cells and solutions were maintained at room temperature (19° C.-30° C.). For manual patchclamp recordings, cell culture dishes were placed on the dish holder of the microscope and continuously perfused (1 ml/min) with bath solution. After formation of a Gigaohm seal between the patch electrode and the cell (pipette resistance range: 2.5 MΩ-6.0MΩ; seal resistance range: >1 GΩ) the cell membrane across the pipette tip was ruptured to assure electrical access to the cell interior (whole-cell patch configuration).
# Cells were voltage-clamped at a holding potential of −80 mV. GABAA receptors were activated by 2 μM GABA and compounds were sequentially applied at increasing concentrations for 30 s prior to a 2 s application of GABA. GABA and compounds were applied to cells via the Dynaflow perfusion system (Cellectricon, Sweden). Test compounds were dissolved in DMSO to form 10 mM stock solution and serially diluted to 0.01, 0.1, 1, and 10 μM in bath solution. […] All concentrations of test compound were tested on each cell. The relative percentage potentiation was defined as the peak amplitude in response to GABA EC20 in the presence of test compound divided by the peak amplitude in response to GABA EC20 alone, multiplied by 100.
# ALLO and ganaxolone are known PAMs of both synaptic and extrasynaptic GABAAR-mediated currents. […] The α1β2γ2 or α4β3δ subunit combinations were chosen as representatives of typical synaptic and extrasynaptic GABAA receptors respectively.
# [1] = system: dentate gyrus granule cells (DGGCs); test: Acute NAS exposure: phasic currents (sIPSCs) in DGGCs of hippocampal slices; assay type: cell-based, mouse; details: for mean sIPSC amplitude before versus during exposure / mean sIPSC decay time in the presence of NAS: 100 nM acute; for sIPSC Amplitude / sIPSC Decay / sIPSC Frequency: during acute 100 nM exposure
# Description: Brain slices were prepared from 3- to 5-week-old male C57 mice. Mice were anesthetized with isoflurane, decapitated, and brains were rapidly removed and submerged in ice-cold cutting solution containing (mM): 126 NaCl, 2.5 KCl, 0.5 CaCl2, 2 MgCl2, 26 NaHCO3, 1.25 NaH2PO4, 10 glucose, 1.5 sodium pyruvate, and 3 kynurenic acid. Coronal 310 μm thick slices were cut with the vibratome VT1000S (Leica Microsystems, St Louis, Mo., USA). The slices were then transferred into incubation chamber filled with prewarmed (31-32° C.) oxygenated artificial cerebro-spinal fluid (ACSF) of the following composition (in mM): 126 NaCl, 2.5 KCl, 2 CaCl2, 2 MgCl2, 26 NaHCO3, 1.25 NaH2PO4, 10 glucose, 1.5 sodium pyruvate, 1 glutamine, 3 kynurenic acid and 0.005 GABA bubbled with 95% O2-5% CO2. Slices were allowed to recover at 32° C. for at least 1 hr before recording. Exogenous GABA was added in an attempt to standardize ambient GABA in the slice and provide an agonist source for newly inserted extrasynaptic GABAARs.
# After recovery, a single slice was transferred to a submerged, dual perfusion recording chamber (Warner Instruments, Hamden, Conn., USA) on the stage of an upright microscope (Nikon FN-1) with a 40× water immersion objective equipped with DIC/IR optics. Slices were maintained at 32° C. and gravity-superfused with ACSF solution throughout experimentation and perfused at rate of 2 ml/min with oxygenated (O2/CO2 95/5%) ACSF.
# Whole-cell currents were recorded from the dentate gyrus granule cells (DGGCs) in 310-μm-thick coronal hippocampal slices. Patch pipettes (5-7MΩ) were pulled from borosilicate glass (World Precision Instruments) and filled with intracellular solution of the composition (in mM) as follows: 140 CsCl, 1 MgCl2, 0.1 EGTA, 10 HEPES, 2 Mg-ATP, 4 NaCl and 0.3 Na-GTP (pH=7.2 with CsOH). A 5 min period for stabilization after obtaining the whole-cell recording conformation (holding potential of −60 mV) was allowed before currents were recorded using an Axopatch 200B amplifier (Molecular Devices), low-pass filtered at 2 kHz, digitized at 20 kHz (Digidata 1440A; Molecular Devices), and stored for offline analysis.
# For tonic current measurements, an all-points histogram was plotted for a 10 s period before and during 100 μM picrotoxin application, once the response reached a plateau level. Recordings with unstable baselines were discarded. Fitting the histogram with a Gaussian distribution gave the mean baseline current amplitude and the difference between the amplitudes before and during picrotoxin was considered to be the tonic current. The negative section of the all-points histogram which corresponds to the inward IPSCs was not fitted with a Gaussian distribution (Kretschmannova et al., 2013; Nusser and Mody, 2002). Series resistance and whole-cell capacitance were continually monitored and compensated throughout the course of the experiment. Recordings were eliminated from data analysis if series resistance increased by >20%. Spontaneous inhibitory post-synaptic currents (sIPSCs) were analyzed using the mini-analysis software (version 5.6.4; Synaptosoft, Decatur, Ga.). Minimum threshold detection was set to 3 times the value of baseline noise signal. To assess sIPSC kinetics, the recording trace was visually inspected and only events with a stable baseline, sharp rising phase, and single peak were used to negate artifacts due to event summation. Only recordings with a minimum of 200 events fitting these criteria were analyzed. sIPSCs amplitude, and frequency from each experimental condition was pooled and expressed as mean±SEM. To measure sIPSC decay, 100 consecutive events were averaged and the decay was fitted to a double exponential and the weighted decay constant (tw) was determined. Statistical analysis was performed by using Student t-test (paired and unpaired where appropriate), where p<0.05 is considered significant. […]
Structure (SMILES),"pEC50 ± S.E.M., α1β2γ2 (α1β2γ2 GABAA receptors; potentiation of current at GABA EC20 (2 μM), n = 3)",mean sIPSC amplitude before versus during exposure [1],mean sIPSC decay time in the presence of NAS [1],sIPSC Amplitude [1] [pA],sIPSC Decay [1] [ms],sIPSC Frequency [1] [Hz],EC50 (α1β2γ2 GABAA receptors) [µM],"EC50 (α1β2γ2 GABAA receptors; potentiation of current at GABA EC20 (2 μM), n = 3, read-out: EC50, α1β2γ2) [µM]","Emax (α1β2γ2 GABAA receptors; relative percentage potentiation of GABA EC20 current, read-out: Emax ± S.E.M., α1β2γ2) [%]"
"CC(=O)[C@H]1CC[C@H]2[C@@H]3CC[C@H]4C[C@H](O)CC[C@]4(C)[C@H]3CC[C@]12C [ALLO, Allopregnanolone]",6.9 ± 0.2,no significant difference,significantly increased,39.1,19.2,3.4,–,–,–
CC(=O)[C@H]1CC[C@H]2[C@@H]3CC[C@H]4C[C@](C)(O)CC[C@]4(C)[C@H]3CC[C@]12C [Ganaxolone],–,no significant difference,significantly increased,55.1,23.8,5.6,0.251,–,–
C[C@@]1(O)CC[C@@]2(C)[C@H](CC[C@@H]3[C@@H]2CC[C@]2(C)[C@@H](C(=O)Cn4nccn4)CC[C@@H]32)C1 [SGE-516],–,no significant difference,significantly increased,52.9,15.1,4.6,–,0.061,219
